# Results taken from patent publication US20170150719A1, “FUNGICIDAL PYRAZOLES AND THEIR MIXTURES” (E I DU PONT DE NEMOURS AND COMPANY, priority 2010, published 2017).
# Marks after values point to notes of the source that are not given here.
# Tested on: Septoria tritici
# Test: Test F: wheat leaf blotch, preventive spray on wheat seedlings, visual disease rating
# Format: in vivo
# Set-up: Test F rating (disease control), value marked *: concentration or dose not given beside the values
# Conditions: 100 = 100% disease control, 0 = no disease control relative to the controls
# Excerpt: (§1) A hyphen (-) indicates no test results.
row,SMILES,Test F rating (disease control) [%]
1,Cc1nn(C)c(Nc2c(Cl)cc(F)cc2Cl)c1-c1ccc(Cl)cc1Cl [compound 132],99
2,Cc1nn(C)c(Nc2ccc(Br)cc2F)c1-c1ccc(F)cc1Cl [compound 135],100
3,Cc1nn(C)c(Nc2ccc(Br)cc2F)c1-c1ccc(F)cc1F [compound 154],100
4,Cc1nn(C)c(Nc2c(Cl)cc(Br)cc2Cl)c1-c1ccc(F)cc1F [compound 155],100
5,Cc1nn(C)c(Nc2c(F)cc(F)cc2Cl)c1-c1ccc(Cl)cc1Cl [compound 156],100
6,Cc1nn(C)c(Nc2ccc(Cl)cc2F)c1-c1ccc(F)cc1F [compound 160],100
7,Cc1nn(C)c(Nc2c(Cl)cc(Br)cc2Cl)c1-c1ccc(F)cc1Cl [compound 164],100
8,Cc1nn(C)c(Nc2ccc(Br)cc2Cl)c1-c1ccc(F)cc1F [compound 167],100
9,Cc1nn(C)c(Nc2c(Cl)cc(Br)cc2Cl)c1-c1ccc(F)cc1Br [compound 168],100

# Same assay, conditions: rating marked with asterisk (*), other test condition, not explained in the text shown
row,SMILES,"Test F rating (disease control), value marked *"
1,Cc1nn(C)c(Oc2ccc(Cl)cc2F)c1-c1ccc(F)cc1Cl [compound 158],99* %
2,Cc1nn(C)c(Oc2ccc(C#N)cc2F)c1-c1ccc(F)cc1F [compound 159],100* %
3,Cc1nn(C)c(Nc2c(F)cc(Br)cc2F)c1-c1ccc(F)cc1Br [compound 163],100* %

# Tested on: Puccinia recondita f. sp. tritici
# Test: Test G: wheat leaf rust, spray after inoculation (curative) on wheat seedlings, visual disease rating
# Format: in vivo
# Conditions: sprayed after inoculation, 100 = 100% disease control, 0 = no disease control
# Excerpt: as §1
row,SMILES,Test G rating (disease control) [%]
1,Cc1nn(C)c(Nc2c(Cl)cc(F)cc2Cl)c1-c1ccc(Cl)cc1Cl [compound 132],0
2,Cc1nn(C)c(Nc2ccc(Br)cc2F)c1-c1ccc(F)cc1Cl [compound 135],9
3,Cc1nn(C)c(Nc2ccc(Br)cc2F)c1-c1ccc(F)cc1F [compound 154],68
4,Cc1nn(C)c(Nc2c(Cl)cc(Br)cc2Cl)c1-c1ccc(F)cc1F [compound 155],94
5,Cc1nn(C)c(Nc2c(F)cc(F)cc2Cl)c1-c1ccc(Cl)cc1Cl [compound 156],31
6,Cc1nn(C)c(Nc2ccc(Cl)cc2F)c1-c1ccc(F)cc1F [compound 160],0
7,Cc1nn(C)c(Nc2c(Cl)cc(Br)cc2Cl)c1-c1ccc(F)cc1Cl [compound 164],99
8,Cc1nn(C)c(Nc2ccc(Br)cc2Cl)c1-c1ccc(F)cc1F [compound 167],6
9,Cc1nn(C)c(Nc2c(Cl)cc(Br)cc2Cl)c1-c1ccc(F)cc1Br [compound 168],97

# Same assay, conditions: sprayed after inoculation, rating marked with asterisk (*), not explained in the text shown
row,SMILES,"Test G rating (disease control), value marked *"
1,Cc1nn(C)c(Oc2ccc(Cl)cc2F)c1-c1ccc(F)cc1Cl [compound 158],37* %
2,Cc1nn(C)c(Oc2ccc(C#N)cc2F)c1-c1ccc(F)cc1F [compound 159],0* %
3,Cc1nn(C)c(Nc2c(F)cc(Br)cc2F)c1-c1ccc(F)cc1Br [compound 163],91* %

# Tested on: Puccinia recondita f. sp. tritici
# Test: Test H: wheat leaf rust, preventive spray on wheat seedlings, visual disease rating
# Conditions: wheat leaf rust, preventive; rating marked with asterisk (*), not explained in the text shown
# Description: General protocol for preparing test suspensions for Tests A-I: the test compounds were first dissolved in acetone in an amount equal to 3% of the final volume and then suspended at the desired concentration (in ppm) in acetone and purified water (50/50 mix by volume) containing 250 ppm of the surfactant Trem® 014 (polyhydric alcohol esters). The resulting test suspensions were then used in Tests A-I. Each test was conducted in triplicate, and the results were averaged. Spraying a 200 ppm test suspension to the point of run-off on the test plants was the equivalent of a rate of about 800 g/ha. Unless otherwise indicated, the rating values indicate a 200 ppm test suspension was used. (An asterisk “*” next to the rating value indicates a 40 ppm test suspension was used.)
# The test suspension was sprayed to the point of run-off on wheat seedlings. The following day the seedlings were inoculated with a spore suspension of Puccinia recondita f. sp. tritici (the causal agent of wheat leaf rust) and incubated in a saturated atmosphere at 20° C. for 24 h, and then moved to a growth chamber at 20° C. for 6 days, after which time visual disease ratings were made.
row,SMILES,"Test H rating (disease control), value marked *"
1,Cc1nn(C)c(Oc2ccc(Cl)cc2F)c1-c1ccc(F)cc1Cl [compound 158],98* %
2,Cc1nn(C)c(Oc2ccc(C#N)cc2F)c1-c1ccc(F)cc1F [compound 159],98* %
3,Cc1nn(C)c(Nc2c(F)cc(Br)cc2F)c1-c1ccc(F)cc1Br [compound 163],100* %

# Same assay, conditions: wheat leaf rust, sprayed the day before inoculation; 100 = 100% disease control, 0 = no disease control
row,SMILES,Test H rating (disease control) [%]
1,Cc1nn(C)c(Nc2c(Cl)cc(F)cc2Cl)c1-c1ccc(Cl)cc1Cl [compound 132],96
2,Cc1nn(C)c(Nc2ccc(Br)cc2F)c1-c1ccc(F)cc1Cl [compound 135],99
3,Cc1nn(C)c(Nc2ccc(Br)cc2F)c1-c1ccc(F)cc1F [compound 154],98
4,Cc1nn(C)c(Nc2c(Cl)cc(Br)cc2Cl)c1-c1ccc(F)cc1F [compound 155],97
5,Cc1nn(C)c(Nc2c(F)cc(F)cc2Cl)c1-c1ccc(Cl)cc1Cl [compound 156],99
6,Cc1nn(C)c(Nc2ccc(Cl)cc2F)c1-c1ccc(F)cc1F [compound 160],99
7,Cc1nn(C)c(Nc2c(Cl)cc(Br)cc2Cl)c1-c1ccc(F)cc1Cl [compound 164],100
8,Cc1nn(C)c(Nc2ccc(Br)cc2Cl)c1-c1ccc(F)cc1F [compound 167],92
9,Cc1nn(C)c(Nc2c(Cl)cc(Br)cc2Cl)c1-c1ccc(F)cc1Br [compound 168],91

# Tested on: Botrytis cinerea
# Test: Test A: tomato Botrytis, preventive spray on tomato seedlings, visual disease rating
# Conditions: tomato Botrytis; 100 = 100% disease control, 0 = no disease control relative to the controls
row,SMILES,Test A rating (disease control) [%]
1,Cc1nn(C)c(Nc2c(Cl)cc(F)cc2Cl)c1-c1ccc(Cl)cc1Cl [compound 132],93
2,Cc1nn(C)c(Nc2ccc(Br)cc2F)c1-c1ccc(F)cc1Cl [compound 135],100
3,Cc1nn(C)c(Nc2ccc(Br)cc2F)c1-c1ccc(F)cc1F [compound 154],100
4,Cc1nn(C)c(Nc2c(Cl)cc(Br)cc2Cl)c1-c1ccc(F)cc1F [compound 155],100
5,Cc1nn(C)c(Nc2c(F)cc(F)cc2Cl)c1-c1ccc(Cl)cc1Cl [compound 156],100
6,Cc1nn(C)c(Nc2ccc(Cl)cc2F)c1-c1ccc(F)cc1F [compound 160],100
7,Cc1nn(C)c(Nc2c(Cl)cc(Br)cc2Cl)c1-c1ccc(F)cc1Cl [compound 164],99
8,Cc1nn(C)c(Nc2ccc(Br)cc2Cl)c1-c1ccc(F)cc1F [compound 167],100
9,Cc1nn(C)c(Nc2c(Cl)cc(Br)cc2Cl)c1-c1ccc(F)cc1Br [compound 168],0

# Same assay, conditions: tomato Botrytis; rating marked with asterisk (*), other test condition, not explained in the text shown
row,SMILES,"Test A rating (disease control), value marked *"
1,Cc1nn(C)c(Oc2ccc(Cl)cc2F)c1-c1ccc(F)cc1Cl [compound 158],100* %
2,Cc1nn(C)c(Oc2ccc(C#N)cc2F)c1-c1ccc(F)cc1F [compound 159],100* %
3,Cc1nn(C)c(Nc2c(F)cc(Br)cc2F)c1-c1ccc(F)cc1Br [compound 163],100* %

# Tested on: Alternaria solani
# Test: Test B: tomato early blight, preventive spray on tomato seedlings, visual disease rating
# Conditions: tomato early blight; 100 = 100% disease control, 0 = no disease control relative to the controls
row,SMILES,Test B rating (disease control) [%]
1,Cc1nn(C)c(Nc2c(Cl)cc(F)cc2Cl)c1-c1ccc(Cl)cc1Cl [compound 132],0
2,Cc1nn(C)c(Nc2ccc(Br)cc2F)c1-c1ccc(F)cc1Cl [compound 135],58
3,Cc1nn(C)c(Nc2ccc(Br)cc2F)c1-c1ccc(F)cc1F [compound 154],9
4,Cc1nn(C)c(Nc2c(Cl)cc(Br)cc2Cl)c1-c1ccc(F)cc1F [compound 155],0
5,Cc1nn(C)c(Nc2c(F)cc(F)cc2Cl)c1-c1ccc(Cl)cc1Cl [compound 156],99
6,Cc1nn(C)c(Nc2ccc(Cl)cc2F)c1-c1ccc(F)cc1F [compound 160],99
7,Cc1nn(C)c(Nc2c(Cl)cc(Br)cc2Cl)c1-c1ccc(F)cc1Cl [compound 164],0
8,Cc1nn(C)c(Nc2ccc(Br)cc2Cl)c1-c1ccc(F)cc1F [compound 167],0
9,Cc1nn(C)c(Nc2c(Cl)cc(Br)cc2Cl)c1-c1ccc(F)cc1Br [compound 168],0

# Same assay, conditions: tomato early blight; rating marked with asterisk (*), other test condition, not explained in the text shown
row,SMILES,"Test B rating (disease control), value marked *"
1,Cc1nn(C)c(Oc2ccc(Cl)cc2F)c1-c1ccc(F)cc1Cl [compound 158],80* %
2,Cc1nn(C)c(Oc2ccc(C#N)cc2F)c1-c1ccc(F)cc1F [compound 159],97* %
3,Cc1nn(C)c(Nc2c(F)cc(Br)cc2F)c1-c1ccc(F)cc1Br [compound 163],77* %

# Tested on: Blumeria graminis f. sp. tritici
# Test: Test I: wheat powdery mildew, preventive spray on wheat seedlings, visual disease rating
# Conditions: wheat powdery mildew; 100 = 100% disease control, 0 = no disease control relative to the controls
row,SMILES,Test I rating (disease control) [%]
1,Cc1nn(C)c(Nc2c(Cl)cc(F)cc2Cl)c1-c1ccc(Cl)cc1Cl [compound 132],43
2,Cc1nn(C)c(Nc2ccc(Br)cc2F)c1-c1ccc(F)cc1Cl [compound 135],100
3,Cc1nn(C)c(Nc2ccc(Br)cc2F)c1-c1ccc(F)cc1F [compound 154],99
4,Cc1nn(C)c(Nc2c(Cl)cc(Br)cc2Cl)c1-c1ccc(F)cc1F [compound 155],99
5,Cc1nn(C)c(Nc2c(F)cc(F)cc2Cl)c1-c1ccc(Cl)cc1Cl [compound 156],99
6,Cc1nn(C)c(Nc2ccc(Cl)cc2F)c1-c1ccc(F)cc1F [compound 160],100
7,Cc1nn(C)c(Nc2c(Cl)cc(Br)cc2Cl)c1-c1ccc(F)cc1Cl [compound 164],99
8,Cc1nn(C)c(Nc2ccc(Br)cc2Cl)c1-c1ccc(F)cc1F [compound 167],98
9,Cc1nn(C)c(Nc2c(Cl)cc(Br)cc2Cl)c1-c1ccc(F)cc1Br [compound 168],48

# Same assay, conditions: wheat powdery mildew; rating marked with asterisk (*), not explained in the text shown
row,SMILES,"Test I rating (disease control), value marked *"
1,Cc1nn(C)c(Oc2ccc(Cl)cc2F)c1-c1ccc(F)cc1Cl [compound 158],96* %
2,Cc1nn(C)c(Oc2ccc(C#N)cc2F)c1-c1ccc(F)cc1F [compound 159],96* %
3,Cc1nn(C)c(Nc2c(F)cc(Br)cc2F)c1-c1ccc(F)cc1Br [compound 163],100* %

# Tested on: Septoria nodorum
# Test: Test E: Septoria glume blotch, preventive spray on wheat seedlings, visual disease rating
# Conditions: Septoria glume blotch; 100 = 100% disease control, 0 = no disease control relative to the controls
row,SMILES,Test E rating (disease control) [%]
1,Cc1nn(C)c(Nc2c(Cl)cc(F)cc2Cl)c1-c1ccc(Cl)cc1Cl [compound 132],0
2,Cc1nn(C)c(Nc2ccc(Br)cc2F)c1-c1ccc(F)cc1Cl [compound 135],0
3,Cc1nn(C)c(Nc2ccc(Br)cc2F)c1-c1ccc(F)cc1F [compound 154],0
4,Cc1nn(C)c(Nc2c(Cl)cc(Br)cc2Cl)c1-c1ccc(F)cc1F [compound 155],0
5,Cc1nn(C)c(Nc2c(F)cc(F)cc2Cl)c1-c1ccc(Cl)cc1Cl [compound 156],73
6,Cc1nn(C)c(Nc2ccc(Cl)cc2F)c1-c1ccc(F)cc1F [compound 160],0
7,Cc1nn(C)c(Nc2c(Cl)cc(Br)cc2Cl)c1-c1ccc(F)cc1Cl [compound 164],0
8,Cc1nn(C)c(Nc2ccc(Br)cc2Cl)c1-c1ccc(F)cc1F [compound 167],0
9,Cc1nn(C)c(Nc2c(Cl)cc(Br)cc2Cl)c1-c1ccc(F)cc1Br [compound 168],0

# Same assay, conditions: Septoria glume blotch; rating marked with asterisk (*), other test condition, not explained in the text shown
row,SMILES,"Test E rating (disease control), value marked *"
1,Cc1nn(C)c(Oc2ccc(Cl)cc2F)c1-c1ccc(F)cc1Cl [compound 158],0* %
2,Cc1nn(C)c(Oc2ccc(C#N)cc2F)c1-c1ccc(F)cc1F [compound 159],86* %
3,Cc1nn(C)c(Nc2c(F)cc(Br)cc2F)c1-c1ccc(F)cc1Br [compound 163],60* %
